Data: patent US10821117B2, “Estrogen therapy for brain gray matter atrophy and associated disability” (The Regents of the University of California, priority 2014, dated 2020)

Legend:
[1] = system: relapsing remitting multiple sclerosis patients; test: Expanded Disability Status Scale (EDSS) change and disability progression; format: in vivo, human; conditions: for Proportion of pts with progression at 24 months % (95% CI): EDSS progression sustained at least 6 months, Kaplan-Meier; for EDSS change at 24 months (median): within group comparison vs baseline, negative values indicate improvement
Description: Standardized neurologic assessments, including an EDSS assessment, were performed at months 0, 3, 6, 12, 18 and 24, and at the time of a suspected relapse (as an additional unscheduled visit). EDSS assessments were performed by physicians who were trained either by in-person training or online (www.Neurostatus.net). MRI scans were obtained at screening and at months 0, 3, 6, 12 and 24. Subjects were seen or contacted every 3 months for compliance assessments and for dispensing medications.
(§1) Secondary efficacy end points included the proportion of subjects with a relapse over all 24 months, a change in PASAT cognitive testing, a sustained improvement in PASAT cognitive testing (as defined by an increase of at least 3 points sustained over at least 6 months), a change in EDSS scores from baseline, disability progression (as defined by an increase in EDSS of at least 1.0 point in subjects with a baseline score of 1.0 or higher, or by an increase of at least a 1.5 points in subjects with a baseline score of 0, each sustained for at least 6 months). Tertiary end points included gray matter atrophy on MRI.
For the time to first relapse analysis, Kaplan Meier curves and log-rank test were used to estimate and compare the relapse free probabilities of the two treatment groups. Cox proportional hazards model was used to compare the time to relapse free probabilities between two groups adjusting for covariates. The fixed effects include treatment groups (Estriol+GA vs Placebo+GA), baseline lesion number, age and baseline EDSS score. The random effect of subject is included in the model to account for within subject correlation.
(§2) Linear mixed effects model was carried out to compare the percent change in whole gray matter and cortical gray matter between treatment groups. For the exploratory endpoints of EDSS, PASAT, and brain volume measures, linear mixed effects model was used to compare treatment groups at 12 and 24 months. Linear mixed effects model was carried out to evaluate the association between PASAT change and percent brain volume change.

[2] = system: relapsing remitting multiple sclerosis patients; test: Multiple Sclerosis Functional Composite (MSFC): PASAT3, 9-Hole Peg Test, 25-foot Walk Time; format: in vivo, human
Source text: as §1, §2
Another clinical disability measure with treatment effects was the timed 25-foot walk test. This test measures how many seconds it takes to walk 25 feet, with higher scores indicating worse disability. […] This beneficial effect of estriol treatment on 25-foot walking times is consistent with the beneficial effect of estriol treatment on EDSS scores since the latter is weighted toward being an indicator of ambulation.
There were no significant differences between groups in the Multiple Sclerosis Functional Composite (MSFC), which reflects a composite of scores including the Paced Auditory Serial Addition Test (PASAT) for cognition, the 9 hole peg test and the 25 foot walk test (Table 4). However, an interesting effect of combination treatment was observed on cognitive disability. A perfect PASAT score is 60, with scores lower than 55 serving as a continuous variable for disability. […] After 12 months of treatment, patients receiving Copaxone® plus estriol continued to have high PASAT scores to the end of study at month 24, while participants receiving placebo began to show […] PASAT scores by month 24. […] This represents repair of disability, not merely prevention of worsening. This beneficial effect on PASAT scores at 12 months in the Estriol plus GA group could not be attributed to practice effects of repeated testing since the comparison was with the Placebo plus GA group tested at identical time points.

[3] = first of two lines headed Month 24 (N = 70 / N = 60), positive value indicates worsening
[4] = positive value indicates improvement
[5] = positive value indicates worsening
[6] = second line headed Month 24 (N = 60 / N = 55), positive value indicates worsening

For glatiramer acetate [Placebo + GA], which “Proportion of pts with progression at 24 months % (95% CI)” value [1] is on record?
The value was 15.8 (8.8-27.6) %.

What about the “Proportion of pts with progression at 24 months % (95% CI)” value ([1]; listed as Placebo plus GA) of the same substance?
Its value is 15.8%.

And the “EDSS scores over 24 months, slope” value ([1]; FIG. 6)?
Its value is −0.01.

What about the “EDSS change at 24 months (median)” value [1] of the same substance?
The value was 0.

What about the “EDSS change at 24 months (median)” value ([1]; listed as Copaxone® plus placebo) of the same substance?
Its value is “no change”.

And the “EDSS change at 24 months (median)” value ([1]; listed as Placebo plus GA)?
The value was “stable and unchanged”.

What about the “PASAT score change at 12 months, within group comparison” value ([2]; FIG. 7B) of the same substance?
Its value is “no change”.

And the “PASAT scores improvement compared with baseline” value ([2]; by 12 months of treatment)?
The value was “no significant improvement”.

What about the “25-foot Walk Time, Change from baseline at Month 24, Mean ± SD” value [2, 3] of the same substance?
Its value is 0.0 ± 0.9.

And the “25-foot Walk Time, Change from baseline at Month 24, Median” value [2, 3]?
The value was 0.0.

What about the “timed 25-foot walk test, walk time” value ([2]; over the study, higher scores indicate worse disability) of the same substance?
Its value is “significantly increased”.

What about the “MSFC Score, Change from baseline at Month 12, Mean ± SD” value [2, 4] of the same substance?
Its value is 0.06 ± 0.38.

What about the “MSFC Score, Change from baseline at Month 24, Mean ± SD” value [2, 4] of the same substance?
Its value is 0.09 ± 0.43.

What about the “PASAT3 score - All Patients, % change from baseline at Month 12, Mean ± SD” value [2, 4] of the same substance?
The value was 0.8 ± 9.9%.

What about the “PASAT3 score - All Patients, % change from baseline at Month 12, Median” value [2, 4] of the same substance?
The value was 0%.

And the “PASAT3 score - All Patients, % change from baseline at Month 24, Mean ± SD” value [2, 4]?
Its value is 2.7 ± 10.3%.

What about the “PASAT3 score - All Patients, % change from baseline at Month 24, Median” value [2, 4] of the same substance?
Its value is 0%.

What about the “PASAT3 score - All Patients, change from baseline at Month 12, Mean ± SD” value [2, 4] of the same substance?
The value was 0.1 ± 4.5.

And the “PASAT3 score - All Patients, change from baseline at Month 12, Median” value [2, 4]?
Its value is 0.

What about the “PASAT3 score - All Patients, change from baseline at Month 24, Mean ± SD” value [2, 4] of the same substance?
The value was 1.1 ± 4.3.

What about the “PASAT3 score - All Patients, change from baseline at Month 24, Median” value [2, 4] of the same substance?
The value was 0.

What about the “PASAT3 score - Patients with baseline score <55, % change from baseline at Month 12, Mean ± SD” value [2, 4] of the same substance?
Its value is 4.0 ± 14.0%.

What about the “PASAT3 score - Patients with baseline score <55, % change from baseline at Month 12, Median” value [2, 4] of the same substance?
The value was 3.8%.

And the “PASAT3 score - Patients with baseline score <55, % change from baseline at Month 24, Mean ± SD” value [2, 4]?
Its value is 6.9 ± 14.7%.

And the “PASAT3 score - Patients with baseline score <55, % change from baseline at Month 24, Median” value [2, 4]?
Its value is 9.1%.

And the “PASAT3 score - Patients with baseline score <55, change from baseline at Month 12, Mean ± SD” value [2, 4]?
The value was 1.6 ± 6.0.

What about the “PASAT3 score - Patients with baseline score <55, change from baseline at Month 12, Median” value [2, 4] of the same substance?
Its value is 1.0.

What about the “PASAT3 score - Patients with baseline score <55, change from baseline at Month 24, Mean ± SD” value [2, 4] of the same substance?
The value was 3.0 ± 5.9.

What about the “PASAT3 score - Patients with baseline score <55, change from baseline at Month 24, Median” value [2, 4] of the same substance?
The value was 4.0.

And the “9-Hole Peg Test, Change from baseline at Month 12, Mean ± SD” value [2, 5]?
The value was −0.1 ± 1.8.

What about the “9-Hole Peg Test, Change from baseline at Month 12, Median” value [2, 5] of the same substance?
Its value is −0.4.

And the “9-Hole Peg Test, Change from baseline at Month 24, Mean ± SD” value [2, 5]?
Its value is −0.4 ± 1.5.

And the “9-Hole Peg Test, Change from baseline at Month 24, Median” value [2, 5]?
The value was −0.5.

What about the “25-foot Walk Time, Change from baseline at Month 24, Mean ± SD” value [2, 6] of the same substance?
The value was 0.1 ± 1.1.

And the “25-foot Walk Time, Change from baseline at Month 24, Median” value [2, 6]?
Its value is 0.1.
